Results as given in the NIST ThermoML archive (doi:10.1016/j.jct.2018.11.025).
Numbers after ± are expanded uncertainties.

Details: for Normal melting temperature: DTA

| Normal melting temperature (Crystal) [°C] | Normal melting temperature (Crystal 1) [°C] | Triple point temperature (Crystal 2, DSC) [K] | Structure (SMILES) |
| --- | --- | --- | --- |
| 243.89 ± 0.7 |  |  | c1ccc2c(c1)[nH]c1ccccc12 [9H-carbazole] |
|  | 98.56 ± 0.7 | 339.52 ± 0.93 | c1ccc2c(c1)ccc1ccccc12 [phenanthrene] |
